{
  "source": "paper PMC8885657",
  "about": "“HPV infection alters vaginal microbiome through down-regulating host mucosal innate peptides used by Lactobacilli as amino acid sources” (Nature Communications, 2022)",
  "key": {"[1]": {"test_system": "defensin/elafin mRNA in immortalized human keratinocytes (HaCaT cells)", "assay": "RT-qPCR of innate peptide expression in non-infected immortalized keratinocytes (TNFα/LPS, siRNA, inhibitors)", "format": "cell-based", "settings": "for Elafin expression / HBD2 expression / HBD3 expression / HBD4 expression: siGL3, TNF alpha +"}, "[2]": {"test_system": "innate peptide mRNA (SLPI, S100A7, Elafin, HBD1-4, HD-5, HD-6) in CTRL and E6E7 cells", "assay": "RT-qPCR of innate peptide expression in CTRL and E6E7 keratinocytes, Control / LPS / TNF alpha (Fig 2D);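 further: mRNA level normalized to HPRT mRNA of the same sample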", "format": "cell-based, human"}},
  "data": [
    {"substance": "TNFα", "values": [
      {"measurement": "HβD2-4 expression (RT-qPCR)", "setting": "[1]; immortalized keratinocytes, TNFα 20 ng/ml, normalized to HPRT, n = 4", "result": "highly stimulated"},
      {"measurement": "Elafin expression", "setting": "[1]; replicate 1", "result": 6.99},
      {"measurement": "HBD2 expression", "setting": "[1]; replicate 1", "result": 14.1},
      {"measurement": "HBD3 expression", "setting": "[1]; replicate 1", "result": 4.31},
      {"measurement": "HBD4 expression", "setting": "[1]; replicate 1", "result": 5.27},
      {"measurement": "Elafin expression", "setting": "[1]; replicate 2", "result": 3.11},
      {"measurement": "HBD2 expression", "setting": "[1]; replicate 2", "result": 7.45},
      {"measurement": "HBD3 expression", "setting": "[1]; replicate 2", "result": 7.5},
      {"measurement": "HBD4 expression", "setting": "[1]; replicate 2", "result": 1.23},
      {"measurement": "Elafin expression", "setting": "[1]; replicate 3", "result": 6.23},
      {"measurement": "HBD2 expression", "setting": "[1]; replicate 3", "result": 7.27},
      {"measurement": "HBD3 expression", "setting": "[1]; replicate 3", "result": 4.03},
      {"measurement": "HBD4 expression", "setting": "[1]; replicate 3", "result": 3.86},
      {"measurement": "Elafin expression", "setting": "[2]; CTRL cells, replicate 1", "result": 5.073},
      {"measurement": "HBD1 expression", "setting": "[2]; CTRL cells, replicate 1", "result": 0.2367},
      {"measurement": "HBD2 expression", "setting": "[2]; CTRL cells, replicate 1", "result": 3.658},
      {"measurement": "HBD3 expression", "setting": "[2]; CTRL cells, replicate 1", "result": 3.171},
      {"measurement": "HBD4 expression", "setting": "[2]; CTRL cells, replicate 1", "result": 2.287},
      {"measurement": "HD-5 expression", "setting": "[2]; CTRL cells, replicate 1", "result": 0.3567},
      {"measurement": "HD-6 expression", "setting": "[2]; CTRL cells, replicate 1", "result": 1.388},
      {"measurement": "S100A7 expression", "setting": "[2]; CTRL cells, replicate 1", "result": 0.722},
      {"measurement": "SLPI expression", "setting": "[2]; CTRL cells, replicate 1", "result": 0.646},
      {"measurement": "Elafin expression", "setting": "[2]; CTRL cells, replicate 2", "result": 4.065},
      {"measurement": "HBD1 expression", "setting": "[2]; CTRL cells, replicate 2", "result": 1.168},
      {"measurement": "HBD2 expression", "setting": "[2]; CTRL cells, replicate 2", "result": 4.597},
      {"measurement": "HBD3 expression", "setting": "[2]; CTRL cells, replicate 2", "result": 4.307},
      {"measurement": "HBD4 expression", "setting": "[2]; CTRL cells, replicate 2", "result": 2.172},
      {"measurement": "HD-5 expression", "setting": "[2]; CTRL cells, replicate 2", "result": 2.274},
      {"measurement": "HD-6 expression", "setting": "[2]; CTRL cells, replicate 2", "result": 2.604},
      {"measurement": "S100A7 expression", "setting": "[2]; CTRL cells, replicate 2", "result": 0.3271},
      {"measurement": "SLPI expression", "setting": "[2]; CTRL cells, replicate 2", "result": 2.0642},
      {"measurement": "Elafin expression", "setting": "[2]; CTRL cells, replicate 3", "result": 7.706},
      {"measurement": "HBD1 expression", "setting": "[2]; CTRL cells, replicate 3", "result": 0.2415},
      {"measurement": "HBD2 expression", "setting": "[2]; CTRL cells, replicate 3", "result": 6.118},
      {"measurement": "HBD3 expression", "setting": "[2]; CTRL cells, replicate 3", "result": 2.998},
      {"measurement": "HBD4 expression", "setting": "[2]; CTRL cells, replicate 3", "result": 5.397},
      {"measurement": "HD-5 expression", "setting": "[2]; CTRL cells, replicate 3", "result": 2.494},
      {"measurement": "HD-6 expression", "setting": "[2]; CTRL cells, replicate 3", "result": 1.116},
      {"measurement": "S100A7 expression", "setting": "[2]; CTRL cells, replicate 3", "result": 1.785},
      {"measurement": "SLPI expression", "setting": "[2]; CTRL cells, replicate 3", "result": 1.2988},
      {"measurement": "Elafin expression", "setting": "[2]; CTRL cells, replicate 4", "result": 14.6325},
      {"measurement": "HBD1 expression", "setting": "[2]; CTRL cells, replicate 4", "result": 1.1843},
      {"measurement": "HBD2 expression", "setting": "[2]; CTRL cells, replicate 4", "result": 11.5149},
      {"measurement": "HBD3 expression", "setting": "[2]; CTRL cells, replicate 4", "result": 3.1783},
      {"measurement": "HBD4 expression", "setting": "[2]; CTRL cells, replicate 4", "result": 3.11},
      {"measurement": "HD-5 expression", "setting": "[2]; CTRL cells, replicate 4", "result": 8.229},
      {"measurement": "HD-6 expression", "setting": "[2]; CTRL cells, replicate 4", "result": 1.904},
      {"measurement": "S100A7 expression", "setting": "[2]; CTRL cells, replicate 4", "result": 0.4855},
      {"measurement": "SLPI expression", "setting": "[2]; CTRL cells, replicate 4", "result": 0.7519},
      {"measurement": "Elafin expression", "setting": "[2]; E6E7 cells, replicate 1", "result": 0.006506},
      {"measurement": "HBD1 expression", "setting": "[2]; E6E7 cells, replicate 1", "result": 0.08614},
      {"measurement": "HBD2 expression", "setting": "[2]; E6E7 cells, replicate 1", "result": 2.123},
      {"measurement": "HBD3 expression", "setting": "[2]; E6E7 cells, replicate 1", "result": 0.6511},
      {"measurement": "HBD4 expression", "setting": "[2]; E6E7 cells, replicate 1", "result": 0.3771},
      {"measurement": "HD-5 expression", "setting": "[2]; E6E7 cells, replicate 1", "result": 0.1042},
      {"measurement": "HD-6 expression", "setting": "[2]; E6E7 cells, replicate 1", "result": 1.213},
      {"measurement": "S100A7 expression", "setting": "[2]; E6E7 cells, replicate 1", "result": "1.453e-5"},
      {"measurement": "SLPI expression", "setting": "[2]; E6E7 cells, replicate 1", "result": 0.0293},
      {"measurement": "Elafin expression", "setting": "[2]; E6E7 cells, replicate 2", "result": 0.03758},
      {"measurement": "HBD1 expression", "setting": "[2]; E6E7 cells, replicate 2", "result": 0.1065},
      {"measurement": "HBD2 expression", "setting": "[2]; E6E7 cells, replicate 2", "result": 0.4899},
      {"measurement": "HBD3 expression", "setting": "[2]; E6E7 cells, replicate 2", "result": 2.311},
      {"measurement": "HBD4 expression", "setting": "[2]; E6E7 cells, replicate 2", "result": 0.789},
      {"measurement": "HD-5 expression", "setting": "[2]; E6E7 cells, replicate 2", "result": 1.126},
      {"measurement": "HD-6 expression", "setting": "[2]; E6E7 cells, replicate 2", "result": 0.08436},
      {"measurement": "S100A7 expression", "setting": "[2]; E6E7 cells, replicate 2", "result": "1.453e-5"},
      {"measurement": "SLPI expression", "setting": "[2]; E6E7 cells, replicate 2", "result": 0.1199},
      {"measurement": "Elafin expression", "setting": "[2]; E6E7 cells, replicate 3", "result": 0.01347},
      {"measurement": "HBD1 expression", "setting": "[2]; E6E7 cells, replicate 3", "result": 0.06181},
      {"measurement": "HBD2 expression", "setting": "[2]; E6E7 cells, replicate 3", "result": 2.314},
      {"measurement": "HBD3 expression", "setting": "[2]; E6E7 cells, replicate 3", "result": 0.09282},
      {"measurement": "HBD4 expression", "setting": "[2]; E6E7 cells, replicate 3", "result": 1.611},
      {"measurement": "HD-5 expression", "setting": "[2]; E6E7 cells, replicate 3", "result": 0.8629},
      {"measurement": "HD-6 expression", "setting": "[2]; E6E7 cells, replicate 3", "result": 0.3418},
      {"measurement": "S100A7 expression", "setting": "[2]; E6E7 cells, replicate 3", "result": "8.731e-6"},
      {"measurement": "SLPI expression", "setting": "[2]; E6E7 cells, replicate 3", "result": 0.005195},
      {"measurement": "Elafin expression", "setting": "[2]; E6E7 cells, replicate 4", "result": 0.01173},
      {"measurement": "HBD1 expression", "setting": "[2]; E6E7 cells, replicate 4", "result": 0.009073},
      {"measurement": "HBD2 expression", "setting": "[2]; E6E7 cells, replicate 4", "result": 0.5342},
      {"measurement": "HBD3 expression", "setting": "[2]; E6E7 cells, replicate 4", "result": 0.8751},
      {"measurement": "HBD4 expression", "setting": "[2]; E6E7 cells, replicate 4", "result": 0.9721},
      {"measurement": "HD-5 expression", "setting": "[2]; E6E7 cells, replicate 4", "result": 1.847},
      {"measurement": "HD-6 expression", "setting": "[2]; E6E7 cells, replicate 4", "result": 0.557},
      {"measurement": "S100A7 expression", "setting": "[2]; E6E7 cells, replicate 4", "result": "8.0162e-6"},
      {"measurement": "SLPI expression", "setting": "[2]; E6E7 cells, replicate 4", "result": 0.029}
    ]}
  ]
}
